In PubChem BioAssay (NCI) one finds GI50 and TGI data, which are given here for 20 compounds.

Assay in all cases: DTP human tumour cell line panel, 48 h
Assay [1] relates to KM12 colon.
The test system of assay [2] is ACHN renal.
The subject of assay [3] is 786-0 renal.
Assay [4] has as its system EKVX NSCLC.
In assay [5] the test system is HCT-116 colon.
The test system of assay [6] is HOP-62 NSCLC.
Assay [7] deals with MALME-3M melanoma.
Assay [8] concerns HCT-15 colon.
Assay [9] deals with COLO 205 colon.
The subject of assay [10] is SN12C renal.

SMILES strings stand for the structures. “And” between values parts separate entries of the source, which are not always exact repeats. Equal values may be shown once.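 Tested at 5 concentrations; 48 h exposure; 96-well plates; endpoints linearly interpolated, else capped at highest concentration. GI50 is the concentration that inhibits growth by half. The concentration for full growth arrest is given as TGI.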 Where only a bound is given, the exact number is not on record here.

Consider `Cc1cn2c(/C=N/N=C(N)N)c(-c3cccnc3)nc2s1`, for which the GI50 (in general, the concentration at which growth is held to half of that of the control) in assay [1] is 1.58 µM; in assay [2], 11.5 µM; in assay [3] it was 12.9 µM; in [4], 16.7 µM; in assay [5], 8.62 µM; in [6], 10 µM. For the same compound, the values for the GI50 in assay [7], in [8] and in assay [9] were 8.14 µM, 4.39 µM and 11.6 µM, respectively. Also, the TGI (usually the concentration giving total growth inhibition) in [1] worked out at 7.21 µM; in [2], 25.8 µM; in assay [3], 26.8 µM; in assay [4] it was 36.3 µM; in assay [5], 37.8 µM; in assay [6], 24 µM. Also, the TGI amounted to 21.4 µM in assay [7], 18.1 µM in assay [8] and 27.5 µM in [9].

Take `O=C(NC1C2CC3CC(C2)CC1C3)c1cc(/C=C/c2ccccc2)[nH]c(=S)n1` (stereo unspecified): the TGI in assay [1], in [2], in [3], in assay [4], in assay [5] and in assay [6] was > 100 µM each time. The concentration for total growth inhibition (TGI) in assay [7] and in [9] was > 100 µM throughout.

For `COc1ccc2oc(C(=O)O)c3c2c1CCC3`, the concentration for total growth inhibition (TGI) in assay [2], in assay [3], in assay [10], in [4], in [5] and in assay [6] was > 100 µM in each case. For the same compound, the concentration for total growth inhibition (TGI) in [8] and in assay [9] was > 100 µM each time.

As to `O=C1CC(O)(c2ccccc2)C(c2ccccc2)=C1c1ccccc1` (stereo unspecified), the TGI in assay [1], in assay [2], in assay [3], in [10], in assay [4] and in [6] was > 100 µM throughout. In addition, the figures for the total growth inhibition concentration (TGI) in assay [7], in [8] and in assay [9] were > 100 µM, > 100 µM and 35.7 µM, respectively.

Consider `CCOc1ccccc1NC(=O)CCc1n[nH]c(=S)o1`, for which the TGI in assay [1], in assay [2], in assay [3], in assay [10], in assay [4] and in assay [5] was > 100 µM throughout. Moreover, the TGI in assay [7] is > 100 µM.

As to `COc1cccc2c1c(C1=C(c3cn(C)c4ccccc34)C(=O)NC1=O)cn2C`, the GI50 in assay [1], in [2], in [3], in assay [10], in assay [5] and in assay [6] was > 25 µM throughout. Also, the GI50 in assay [7], in assay [8] and in [9] was > 25 µM in each case. Besides, the TGI in assay [1], in assay [2], in assay [3], in assay [10], in assay [5] and in assay [6] was > 25 µM throughout. The TGI in assay [7], in assay [8] and in assay [9] was > 25 µM throughout.

Consider `O=C1c2ccccc2C(=O)N1C/C=C/CO`, for which the TGI in assay [1], in assay [2], in assay [3], in [10], in [5] and in [6] was > 100 µM in each case. For the same compound, the TGI in [7], in [8] and in assay [9] was > 100 µM throughout.

Consider `O=C(NO)c1ccc(Cn2c(=O)n(-c3ccccc3F)c(=O)c3ccccc32)cc1`, for which the GI50 in assay [2] is 2.04 µM; in assay [3], 1.82 µM; in assay [5] it was 1.14 µM; in [7], 0.892 µM; in [8] it was 1.92 µM; in assay [9], 1.39 µM. The TGI in assay [2] is 5.59 µM; in assay [3], 3.65 µM; in [5], 3.19 µM; in assay [7] it was 3.16 µM; in assay [8], 4.42 µM; in assay [9], 3.76 µM.

For the compound `Cc1cc2c(c3oc(C4(C)OC4C4OC4C)cc(=O)c13)C(=O)c1c(O)c(C3CC(C)(N(C)C)C(O)C(C)O3)cc(C3CC(N(C)C)C(O)C(C)O3)c1C2=O` (stereo unspecified), the GI50 in assay [1] was 0.000894 µM and 0.000134 µM; in assay [3] it was 0.000463 µM. Further, the TGI in assay [1] is 0.0419 µM and 0.00486 µM; in assay [2], 8.08e-05 µM and 0.000153 µM; in assay [4], 0.00078 µM and 0.000929 µM.

Regarding `O=C(CCC(C(=O)c1ccccc1)c1ccccc1)c1ccccc1` (stereo unspecified), the GI50 was 3.94 µM in assay [1]; 31.3 µM in [2]; 49.4 µM in [3]; 20.2 µM in assay [10]; 6.45 µM in assay [5]; 25.5 µM in assay [6]. In addition, the GI50 in assay [7] was 5.51 µM; in assay [8], 4.92 µM; in assay [9], 8.8 µM. Besides, the TGI in assay [1], in [2], in [3], in assay [10], in assay [5] and in assay [6] was > 100 µM each time. The TGI was 63.8 µM in [7], > 100 µM in assay [8] and > 100 µM in assay [9].

As for `CCN(CC)CCCC(C)N=c1cc(Nc2cc(=NC(C)CCCN(CC)CC)c3cc(OC)ccc3o2)oc2ccc(OC)cc12` (stereo unspecified), the GI50 in [1] is 1.62 µM; in assay [3], 2.26 µM; in assay [10] it was 1.4 µM; in assay [5], 0.683 µM; in [6], 0.734 µM; in assay [7], 0.937 µM. Besides, the results for the GI50 in assay [8] and in assay [9] were 0.851 µM and 0.632 µM, respectively. Moreover, the TGI in assay [1] stood at 5.63 µM; in assay [3], 8.01 µM; in assay [10], 11.8 µM; in [5], 1.81 µM; in assay [6] it was 2.16 µM; in assay [7], 1.74 µM. The TGI worked out at 2.33 µM in assay [8] and 1.36 µM in assay [9].

In the case of `Nc1c(C(=O)c2ccc(CCCN3CCOCC3)cc2)cnn1-c1ccc(F)cc1`, the GI50 in assay [1], in assay [2], in assay [3], in [10], in assay [5] and in [6] was > 25 µM each time. The GI50 in assay [7], in assay [8] and in [9] was > 25 µM throughout. The TGI in [1], in assay [2], in assay [3], in assay [10], in assay [5] and in assay [6] was > 25 µM throughout. In addition, the TGI in assay [7], in assay [8] and in [9] was > 25 µM each time.

In the case of `OC1C2CCC1C1C3C=CC(C3)C21` (stereo unspecified), the TGI in [1], in [2], in [3], in assay [4], in assay [5] and in assay [6] was > 100 µM in each case. The TGI in assay [7], in [8] and in [9] was > 100 µM each time.

Take `COc1ccc(-c2nc(N3CCN(C(=O)C4CCCCC4)CC3)c3c4c(sc3n2)CCCC4)cc1`: the GI50 was > 100 µM in assay [1]; 23.9 µM in [2]; 38.2 µM in assay [3]; > 100 µM in assay [10]; 34.2 µM in [5]; 27.5 µM in assay [6]. In addition, the GI50 in [7] was 92.1 µM; in assay [8], > 100 µM; in assay [9], > 100 µM. Further, the TGI was > 100 µM in assay [1]; > 100 µM in assay [2]; > 100 µM in assay [3]; > 100 µM in [10]; > 100 µM in assay [5]; 86 µM in assay [6]. Moreover, the total growth inhibition concentration (TGI) in [7], in assay [8] and in [9] was > 100 µM throughout.

Turning to `C=C(C)[C@@H]1CC[C@]2(CO)CC[C@]3(C)[C@H](CC[C@@H]4[C@@]5(C)CCC(NCCc6ccc(O)cc6)C(C)(C)[C@@H]5CC[C@]43C)[C@@H]12` (stereo partly specified), the GI50 in [1] was 1.64 µM; in [2], 1.62 µM; in assay [3], 1.66 µM; in assay [10], 1.67 µM; in assay [5], 1.39 µM; in assay [8], 1.23 µM. Besides, the GI50 in assay [9] was 1.12 µM. Moreover, the total growth inhibition concentration (TGI) in assay [1] was determined as 3.29 µM; in assay [2] it was 2.97 µM; in [3] it was 3.26 µM; in assay [10], 3.19 µM; in assay [5], 2.84 µM; in assay [8], 2.68 µM. Besides, the TGI in assay [9] amounted to 2.68 µM.

With `N#C/C(=C/Sc1ccccc1)C(=O)O`, the TGI in assay [1] is 99.3 µM; in assay [2], > 100 µM; in assay [3], 77.9 µM; in [10], 57.5 µM; in [4] it was > 100 µM; in [5], 55.8 µM. The TGI is > 100 µM in assay [6], > 100 µM in [8] and 47.5 µM in [9].

As to `O=C(/C(=C/c1ccc([N+](=O)[O-])cc1)SCc1ccc(F)cc1)c1ccc(Cl)cc1`, the GI50 in assay [1] was 2.81 µM; in [2] it was 1.96 µM; in assay [3], 10.9 µM; in assay [10] it was 6.94 µM; in assay [4] it was 11.5 µM; in assay [6], 18.9 µM. Moreover, the results for the GI50 in assay [7], in assay [8] and in [9] were 10.1 µM, 2.9 µM and 6.46 µM, respectively. The TGI in assay [1] came out at 8.63 µM; in [2], 4.1 µM; in assay [3], 24.6 µM; in assay [10] it was 34.5 µM; in assay [4] it was 38.6 µM; in assay [6] it was 47.3 µM. Also, the TGI in [7] was determined as 24.6 µM; in assay [8] it was 11.6 µM; in assay [9] it was 28.5 µM.

In the case of `O=C(NCc1ccco1)c1ccc(NC2=C(Cl)C(=O)N(Cc3ccccc3)C2=O)cc1`, the GI50 is 17.2 µM in assay [1]; 12.6 µM in assay [3]; 17.4 µM in assay [10]; 31.2 µM in assay [4]; 10.2 µM in assay [5]; 16.5 µM in [6]. Further, the GI50 in assay [8] was 17.7 µM; in assay [9], 28.4 µM. For the same compound, the TGI came to 36.2 µM in assay [1]; 28.2 µM in assay [3]; 40.6 µM in assay [10]; 72.5 µM in assay [4]; 21.8 µM in [5]; 31.7 µM in assay [6]. Besides, the TGI in [8] came to 74.4 µM; in assay [9], 80.1 µM.

Regarding `CCCCCCc1nc2nc(Cl)c(Cl)nc2[nH]1`, the GI50 in assay [1] is 6.88 µM; in [2], 6.94 µM; in assay [3], > 100 µM; in assay [10], 4.26 µM; in assay [5] it was 6.83 µM; in [6], > 100 µM. Besides, the figures for the GI50 in [7], in assay [8] and in assay [9] were 4.63 µM, 5.06 µM and 8.04 µM, respectively. Also, the TGI in assay [1], in assay [2], in [3], in assay [10], in assay [5] and in assay [6] was > 100 µM each time. The TGI in assay [7], in assay [8] and in assay [9] was > 100 µM in each case.

In the case of `C=C(CN1CCN(c2cccc(C(F)(F)F)n2)CC1)c1ccc(C(=S)Nc2ccccc2N)cc1`, the GI50 was 4.04 µM in [1]; 3.88 µM in assay [2]; 4.29 µM in [3]; 4.64 µM in [10]; 4.47 µM in [4]; 2.76 µM in [5]. The GI50 in assay [6] is 8.08 µM; in [8] it was 4.11 µM; in assay [9], 3.19 µM. Also, the TGI in assay [1] is > 100 µM; in [2], > 100 µM; in assay [3] it was > 100 µM; in assay [10], > 100 µM; in [4], > 100 µM; in [5] it was 19.8 µM. Besides, the TGI in [6] is > 100 µM; in [8], > 100 µM; in [9], 11.8 µM.
